Source: patent publication US20100197584A1, “USE OF CURCUMIN TO BLOCK BRAIN TUMOR FORMATION IN MICE” (Research Foundations of the City University of- New York, priority 2007, published 2010)

Experiments:
[1] = system: HOG (human oligodendroglioma) cells; assay: Caspase-3/7 assay in HOG cells; format: cell-based; details: 20 μM and 50 μM, 48 h or 96 h (FIG. 3)
Protocol: Cells. B16F10 (mouse melanoma), GL261 (mouse glioma), HOG (human oligodendroglioma), A549 (human lung cancer), and […] (mouse neuroblastoma) cells were cultured separately in DMEM containing 10% (v/v) fetal bovine serum and 1% (v/v) penicillin-streptomycin (PS) and allowed to grow to 40% confluence in a 96-well plate. Curcumin Treatment. Two hours before drug treatment, the medium in each well was replaced with 200 μl Neurobasal medium supplemented with 2% (v/v) B27 and 1% (v/v) PS (Drug-treatment Medium). A stock solution (40 mM) of curcumin was prepared in sterile dimethyl sulfoxide (DMSO) (Example 1). Through serial dilution of each stock solution in Drug-treatment Medium, the following concentrations were obtained: 20 μM and 50 μM (for caspase 3/7 assays) or 25 μM and 50 μM (for MTT assays). Drug-treatment Medium in each well was aspirated, and a drug solution of each concentration or carrier-containing medium (control) was added to triplicate wells of cells (50 μl/well). […] Additionally, the background absorbance was determined from parallel wells containing only the Drug-treatment Medium plus a particular concentration of the drug (no cells). […] Fluorescence in each well was measured using the FLx 800 plate reader (Bio-Tek Instruments, Winooski, Vt.) set at 485/20 nm excitation and 528/20 nm emission wavelengths and the sensitivity of 70. […]

[2] = system: N18 (mouse neuroblastoma) cells; assay: Cell viability assay using MTT, N18; format: cell-based; details: 25 μM and 50 μM, 48 h or 96 h, versus control cells (FIG. 6c)
Protocol: Cells. B16F10 (mouse melanoma), GL261 (mouse glioma), HOG (human oligodendroglioma), A549 (human lung cancer), and N18 (mouse neuroblastoma) cells were cultured separately in DMEM containing 10% (v/v) fetal bovine serum and 1% (v/v) penicillin-streptomycin (PS) and allowed to grow to 40% confluence in a 96-well plate.
Curcumin Treatment. Two hours before drug treatment, the medium in each well was replaced with 200 μl Neurobasal medium supplemented with 2% (v/v) B27 and 1% (v/v) PS (Drug-treatment Medium). A stock solution (40 mM) of curcumin was prepared in sterile dimethyl sulfoxide (DMSO) (Example 1). Through serial dilution of each stock solution in Drug-treatment Medium, the following concentrations were obtained: 20 μM and 50 μM (for caspase 3/7 assays) or 25 μM and 50 μM (for MTT assays). […] Additionally, the background absorbance was determined from parallel wells containing only the Drug-treatment Medium plus a particular concentration of the drug (no cells).
Cell Viability Assay Using MTT (3-(4,5-Dimethylthiazolyl-2)-2,5-Diphenyltetrazolium Bromide). […] Absorbance was measured at 570 nm using a 96-well multi scanner auto-reader with the extraction buffer used as blank. For curcumin samples, the absorbance obtained from the corresponding curcumin plus medium samples was subtracted.

[3] = system: normal (non-tumor) brain cells; assay: Normal brain cell viability (MTT on brain sections); format: in vivo; details: 200 μl of 667 μM, tail vein, three consecutive days; compared to carrier-injected mice (FIG. 10)
Protocol: In each experiment, three mice were injected with 200 μl of PBS containing 3% DMSO, and three mice were injected with 200 μl of 667 μM curcumin (as described earlier) through the tail vein on three consecutive days by the method described above. On the fourth day, the mice were perfused with PBS through the heart, and the brains sectioned into 400-μm sections. Similar brain sections were also made from untreated mice which were then treated with 1 mM H2O2 in PBS for one hour, followed by incubation in H2O2-free DTM for three hours. These samples were used as a positive control for cell death.
The sections from each mouse were placed in 400 μl PBS in one well of a 48-well plate (i.e. three wells for three mice) and then treated with 200 μl of MTT (5 mg/ml) per well with gentle mixing at 37° C. for about 2 hours. Subsequently, 800 μl of the lysis buffer was added to each well, and the plate was sealed and incubated overnight at 37° C. with gentle mixing. Three 100-μl portions of the tissue solution obtained were next transferred to three respective wells of a 96-well plate (i.e. three wells per mouse and nine wells for three mice in one group) and absorbance at 570 nm was measured using a 96-well multi scanner auto-reader. Results obtained were normalized to protein levels and then expressed as percent of carrier-treated samples.

COc1cc(/C=C/C(=O)CC(=O)/C=C/c2ccc(O)c(OC)c2)ccc1O [curcumin]
caspase-3/7 activity [1]: increased
cell viability (MTT) [2]: dramatic decrease
cell viability in the brain (MTT activity) [3]: did not cause suppression of cell viability
